The text below walks through data of patent US6451814B1, “Heterocyclic β-3 adrenergic receptor agonists” (Wyeth, priority 2000, dated 2002).

pEC50: −log10 of the molar value. Structures can show the parent of a compound that is named as a salt.

Data set [1] concerns the target T1, human β3-adrenergic receptor (Homo sapiens, UniProt P13945).
T1 construct: Full length β3 AR clones (402 amino acids) containing the last 6 amino acids of hβ3—AR are prepared; expressed in transfected cells; host or cells: CHO cells
Put plainly: cAMP response (SPA kit) in CHO cells transfected with human β3 adrenergic receptor. Type of data set: cell-based. As to conditions: for pEC50: CHO cells expressing human β3-AR, 10^-9 M to 10^-5 M, 30 min at 37° C., cAMP by SPA, read-out: EC50(β3); for IA(β3): maximal response of compound compared to maximal response of isoproterenol at 10^-5 M, CHO cells, human β3-AR.

T1 sequence (P13945 whole entry): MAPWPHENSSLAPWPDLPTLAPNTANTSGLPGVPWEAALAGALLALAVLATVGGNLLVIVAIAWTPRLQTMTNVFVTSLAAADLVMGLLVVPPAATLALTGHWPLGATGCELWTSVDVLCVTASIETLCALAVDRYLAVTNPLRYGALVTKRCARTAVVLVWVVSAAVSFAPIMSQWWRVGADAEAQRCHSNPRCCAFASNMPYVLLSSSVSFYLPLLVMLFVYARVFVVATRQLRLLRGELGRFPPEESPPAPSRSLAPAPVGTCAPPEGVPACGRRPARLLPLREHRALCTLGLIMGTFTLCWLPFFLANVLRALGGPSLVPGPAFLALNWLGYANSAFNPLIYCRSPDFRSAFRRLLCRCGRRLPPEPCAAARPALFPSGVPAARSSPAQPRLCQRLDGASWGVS

Take `CCCCCCCCNC(=O)N1CCC(Nc2ccc(CCNC[C@H](O)COc3ccc(O)cc3Cl)cc2)CC1` [Example 16, 4-[4-(2-{[(2S)-3-(2-Chloro-4-hydroxyphenoxy)-2-hydroxypropyl]amino}ethyl)anilino]-N-octyl-1-piperidinecarboxamide]: the melting point (as a rule, the temperature, or range, at which the solid turns liquid) lay within 61 to 65 °C. In data set [1], the pEC50 (in general, the negative decadic logarithm of the EC50, by convention in mol/L) was 6.27 and the “IA(β3)” value came out at 1. In turn, `O=C(NCc1cc(F)ccc1F)N1CCC(Nc2ccc(CCNC[C@H](O)COc3ccc(O)cc3)cc2)CC1` [Example 37, 4-(4-{2-[(2S)-2-Hydroxy-3-(4-hydroxy-phenoxy)-propylamino]-ethyl}-phenylamino)-piperidine-1-carboxylic Acid 2,5-difluoro-benzylamide] displayed a melting point of 69 to 72 °C. In addition, the “IA(β3)” value in data set [1] came to 0.92. `CS(=O)(=O)Nc1cc(OC[C@@H](O)CNCCc2ccc(NC3CCN(C(=O)NCc4cc(F)ccc4F)CC3)cc2)ccc1O` [Example 50, 4-(4-{2-[(2S)-2-Hydroxy-3-(4-hydroxy-3-methanesulfonylamino-phenoxy)-propylamino]-ethyl}-phenylamino)-piperidine-1-carboxylic Acid 2,5-difluoro-benzylamide] displayed a melting point of 103 to 108 °C. The “IA(β3)” value in data set [1] is given as 1. Molecule `CCOC(=O)C1CCN(C(=O)N2CCC(Nc3ccc(CCNC[C@H](O)c4ccc(O)c(NS(C)(=O)=O)c4)cc3)CC2)CC1` [Example 51, 1-[4-(4-{2-[(2R)-2-Hydroxy-2-(4-hydroxy-3-methanesulfonylamino-phenyl)-ethylamino]-ethyl}-phenylamino)-piperidine-1-carbonyl]-piperidine-4-carboxylic Acid Ethyl Ester] registered a melting point of 93 to 97 °C. In data set [1], the pEC50 is 9.00 and the “IA(β3)” value is listed as 0.82. The molecule `CC(=O)Nc1ccc(S(=O)(=O)N2CCC(Nc3ccc(CCNC[C@H](O)COc4ccc(O)cc4)cc3)CC2)cc1` (as salt: salt) [Example 114, N-{4-[4-(4-{2-[(2S)-2-Hydroxy-3-(4-hydroxy-phenoxy)-propylamino]-ethyl}-phenylamino)-piperidine-1-sulfonyl]-phenyl}-acetamide] gave a melting point of 98 to 104 °C. `CCCCCCCCNC(=O)N1CCC(Nc2ccc(CCNC[C@H](O)CON=C3CCCc4c(O)cccc43)cc2)CC1` [Example 64, 4-(4-{2-[(2S)-2-Hydroxy-3-(5-hydroxy-3,4-dihydro-2H-naphthalen-1-ylideneaminooxy)-propylamino]-ethyl}-phenylamino)-piperidine-1-carboxylic Acid Octylamide] showed a melting point of 85 to 87 °C.

Molecule `CNC(=O)N1CCC(Nc2ccc(CCNC[C@H](O)COc3ccc(O)cc3)cc2)CC1` (as salt: salt) [Example 9, 4-(4-{2-[(2S)-2-Hydroxy-3-(4-hydroxy-phenoxy)-propylamino]-ethyl}-phenylamino)-piperidine-1-carboxylic Acid Methylamide] yielded a melting point of 72 to 77 °C. As to `COc1ccc2[nH]c(C(=O)N3CCC(Nc4ccc(CCNCC(O)COc5ccc(O)cc5)cc4)CC3)cc2c1` (stereo not shown) (as salt: salt) [Example 94, [4-(4-{2-[2-Hydroxy-3-(4-hydroxy-phenoxy)-propylamino]-ethyl}-phenylamino)-piperidin-1-yl]-(5-methoxy-1H-indol-2-yl)-methanone], the melting point lay within 101 to 103 °C.

Regarding `O=C(NCCCC1CCCC1)N1CCC(Nc2ccc(CCNC[C@H](O)COc3ccc(O)cc3)cc2)CC1` (as salt: salt) [Example 12, 1-4-(4-{2-[(2S)-2-Hydroxy-3-(4-hydroxy-phenoxy)-propylamino]-ethyl}-phenylamino)-piperidine-1-carboxylic Acid (3-cyclopentyl-propyl)-amide], the melting point is 71 to 74 °C.

`COc1cccc(CCNC(=O)N2CCC(Nc3ccc(CCNC[C@H](O)COc4ccc(O)cc4)cc3)CC2)c1` (as salt: salt) [Example 6, 4-(4-{2-[(2S)-2-Hydroxy-3-(4-hydroxy-phenoxy)-propylamino]-ethyl}-phenylamino)-piperidine-1-carboxylic Acid [2-(3-methoxy-phenyl)-ethyl]-amide]: the melting point was 103 to 108 °C. In turn, `Cc1ccsc1C(=O)N1CCC(Nc2ccc(CCNC[C@H](O)COc3cccc4[nH]c(=O)[nH]c34)cc2)CC1` (as salt: salt) [Example 101, 4-[(2S)-2-Hydroxy-3-(2-{4-[1-(3-methyl-thiophene-2-carbonyl)-piperidin-4-ylamino]-phenyl}-ethylamino)-propoxy]-1,3-dihydro-benzoimidazol-2-one] registered a melting point of 128 to 130 °C. On the same count and under the same terms, with `C=CCc1ccccc1OC[C@@H](O)CNCCc1ccc(NC2CCN(C(=O)NCCCCCCCC)CC2)cc1` (as salt: salt) [Example 4, 4-(4-{2-[(2S)-3-(2-Allyl-phenoxy)-2-hydroxy-propylamino]-ethyl}-phenylamino)-piperidine-1-carboxylic Acid Octylamide] the figure was 73 to 80 °C; with `CCCCCCCCNC(=O)N1CCC(Nc2ccc(CCNC[C@H](O)COc3cccc(NC(C)=O)c3)cc2)CC1` [Example 63, 4-(4-{2-[(2S)-3-(3-Acetylamino-phenoxy)-2-hydroxy-propylamino]-ethyl}-phenylamino)-piperidine-1-carboxylic Acid Octylamide], 73 to 74 °C; with `CCCCCCCCNC(=O)N1CCC(Nc2ccc(CCNC[C@H](O)COc3ccc(N)nc3)cc2)CC1` (as salt: salt) [Example 5, 4-(4-{2-[(2S)-3-(6-Amino-pyridin-3-yloxy)-2-hydroxy-propylamino]-ethyl}-phenylamino)-piperidine-1-carboxylic Acid Octylamide], 134 to 138 °C.

Molecule `CCCCCCCCNC(=O)N1CCC(Oc2ccc(CCNC[C@H](O)COc3ccc(O)cc3)cc2)CC1` (as salt: salt) [Example 54, 4-[4-(2-{[(2S)-2-Hydroxy-3-(4-hydroxyphenoxy)propyl]amino}ethyl)phenoxy]-N-octyl-1-piperidinecarboxamide] came in with a melting point of 153 to 155 °C. Still for that read-out and setting: in the case of `CC(C)NC(=O)N1CCC(Nc2ccc(CCNC[C@H](O)COc3ccc(O)cc3)cc2)CC1` (as salt: salt) [Example 11] it was 89 to 96 °C; in that of `COc1c(C(=O)N2CCC(Nc3ccc(CCNC[C@H](O)COc4cccc(NC(C)=O)c4)cc3)CC2)sc2ccccc12` (as salt: salt) [Example 98, N-{3-[(2S)-2-Hydroxy-3-(2-{4-[1-(3-methoxy-benzo[b]thiophene-2-carbonyl)-piperidin-4-ylamino]-phenyl}-ethylamino)-propoxy]-phenyl}-acetamide], 96 to 98 °C. Molecule `CCCCCCCCNC(=O)N1CCC(Nc2ccc(CCNC[C@H](O)COc3ccc(F)cc3)cc2)CC1` [Example 3, 4-(4-{2-[(2S)-3-(4-Fluoro-phenoxy)-2-hydroxy-propylamino]-ethyl}-phenylamino)-piperidine-1-carboxylic Acid Octylamide] displayed a melting point of 58 to 64 °C.

Regarding `O=C(c1n[nH]c2ccccc12)N1CCC(Nc2ccc(CCNC[C@H](O)COc3ccc(O)cc3)cc2)CC1` (as salt: salt) [Example 102, [4-(4-{2-[(2S)-2-Hydroxy-3-(4-hydroxy-phenoxy)-propylamino]-ethyl}-phenylamino)-piperidin-1-yl]-(1H-indazol-3-yl)-methanone], the melting point is 111 to 113 °C. `CCCCCCCCNC(=O)N1CCC(Nc2ccc(CCNC[C@H](O)c3cccc(Cl)c3)cc2)CC1` (as salt: salt) [Example 36, 4-(4-{2-[(2R)-2-(3-Chloro-phenyl)-2-hydroxy-ethylamino]-ethyl}-phenylamino)-piperidine-1-carboxylic Acid Octylamide] had a melting point of 168 to 171 °C. Molecule `Oc1ccc(OC[C@@H](O)CNCCc2ccc(NC3CCN(c4nc(-c5ccccc5)cs4)CC3)cc2)cc1` (as salt: hydrochloride) [Example 117, 4-[(2S)-2-Hydroxy-3-(2-{4-[1l-(4-phenyl-thiazol-2-yl)-piperidin-4-ylamino]-phenyl}-ethylamino)-propoxy]-phenol] gave a melting point of 80 to 82 °C. In turn, `COc1c(C(=O)N2CCC(Nc3ccc(CCNC[C@H](O)COc4ccc(O)cc4)cc3)CC2)sc2ccccc12` (as salt: salt) [Example 97, [4-(4-{2-[(2S)-2-Hydroxy-3-(4-hydroxy-phenoxy)-propylamino]-ethyl}-phenylamino)-piperidin-1-yl]-(3-methoxy-benzo[b]thiophen-2-yl)-methanone] had a melting point of 84 to 86 °C. The molecule `Cc1ccc(S(=O)(=O)N2CCC(Nc3ccc(CCNC[C@H](O)COc4ccc(O)cc4)cc3)CC2)cc1` (as salt: salt) [Example 112, 4-[(2S)-2-Hydroxy-3-(2-{4-[1-(toluene-4-sulfonyl)-piperidin-4-ylamino]-phenyl}-ethylamino)-propoxy]-phenol] had a melting point of 89 to 92 °C. Regarding `CS(=O)(=O)Nc1cc([C@@H](O)CNCCc2ccc(NC3CCN(c4nc(-c5ccccc5)cs4)CC3)cc2)ccc1O` (as salt: salt) [Example 118, (R)-N-{2-Hydroxy-5-[1-hydroxy-2-(2-{4-[1-(4-phenyl-thiazol-2-yl)-piperidin-4-ylamino]-phenyl}-ethylamino)-ethyl]-phenyl}-methanesulfonamide], the melting point was in the range of 142 to 145 °C. With `CCCCCCCCNC(=O)N1CCC(Nc2ccc(CCNC[C@H](O)COc3ccc(NS(C)(=O)=O)cc3)cc2)CC1` [Example 22, 4-(4-{2-[(2S)-2-Hydroxy-3-(4-methanesulfonylamino-phenoxy)-propylamino]-ethyl}-phenylamino)-piperidine-1-carboxylic Acid Octylamide], the melting point was 89 to 95 °C.
